Results taken from the supplement of paper PMC10307832.

Key:
Assay in all cases: relative viability (nuclei count vs DMSO), 5 days (fraction); higher = more cells survive
LXF-289 = test system: LXF-289
Summary of the method: (§1)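 Relative viability is defined as nuclei in treated wells over nuclei in vehicle wells. Duplicate plates were run and medians reported. Lung cancer cell lines in 1536-well plates were dosed by pin tool one day after seeding, with one drug or with a fixed anchor-drug dose plus five library-drug doses (not always all listed) in √10 steps, and nuclei were counted after 5 days.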

EKVX = test system: EKVX
Summary of the method: as §1

NCI-H1650 = test system: NCI-H1650
Summary of the method: as §1

NCI-H1915 = test system: NCI-H1915
Summary of the method: as §1

SW 1573 = test system: SW 1573
Summary of the method: as §1

NCI-H661 = test system: NCI-H661
Summary of the method: as §1

BEN = test system: BEN
Summary of the method: as §1

NCI-H460 = test system: NCI-H460
Summary of the method: as §1

NCI-H2228 = test system: NCI-H2228
Summary of the method: as §1

NCI-H1651 = test system: NCI-H1651
Summary of the method: as §1

COR-L23 = test system: COR-L23
Summary of the method: as §1

EPLC-272H = test system: EPLC-272H
Summary of the method: as §1

NCI-H520 = test system: NCI-H520
Summary of the method: as §1

NCI-H2347 = test system: NCI-H2347
Summary of the method: as §1

NCI-H358 = test system: NCI-H358
Summary of the method: as §1

A-427 = test system: A-427
Summary of the method: as §1

SW 900 = test system: SW 900
Summary of the method: as §1

EMC-BAC-2 = test system: EMC-BAC-2
Summary of the method: as §1

NCI-H1793 = test system: NCI-H1793
Summary of the method: as §1

LK-2 = test system: LK-2
Summary of the method: as §1

NCI-H2087 = test system: NCI-H2087
Summary of the method: as §1

## COCC1(CO)C(=O)C2CCN1CC2 (stereo not drawn) [PRIMA-1MET] + Cc1nc(Nc2ncc(C(=O)Nc3c(C)cccc3Cl)s2)cc(N2CCN(CCO)CC2)n1 [Dasatinib] (partner 0.075 µM)
LXF-289; first compound 0.2 µM
  relative viability: 0.277
LXF-289; first compound 0.6325 µM
  relative viability: 0.179
LXF-289; first compound 2 µM
  relative viability: 0.199
LXF-289; first compound 6.325 µM
  relative viability: 0.232
LXF-289; first compound 20 µM
  relative viability: 0.173
EKVX; first compound 0.2 µM
  relative viability: 0.469
EKVX; first compound 0.6325 µM
  relative viability: 0.482
EKVX; first compound 2 µM
  relative viability: 0.468
EKVX; first compound 6.325 µM
  relative viability: 0.518
EKVX; first compound 20 µM
  relative viability: 0.564
NCI-H1650; first compound 0.2 µM
  relative viability: 0.341
NCI-H1650; first compound 0.6325 µM
  relative viability: 0.327
NCI-H1650; first compound 2 µM
  relative viability: 0.337
NCI-H1650; first compound 6.325 µM
  relative viability: 0.282
NCI-H1650; first compound 20 µM
  relative viability: 0.06
NCI-H1915; first compound 0.2 µM
  relative viability: 0.328
NCI-H1915; first compound 0.6325 µM
  relative viability: 0.284
NCI-H1915; first compound 6.325 µM
  relative viability: 0.269
NCI-H1915; first compound 20 µM
  relative viability: 0.272
SW 1573; first compound 0.2 µM
  relative viability: 0.452
SW 1573; first compound 0.6325 µM
  relative viability: 0.411
SW 1573; first compound 2 µM
  relative viability: 0.356
SW 1573; first compound 6.325 µM
  relative viability: 0.0331
SW 1573; first compound 20 µM
  relative viability: 0.0202
NCI-H661; first compound 0.2 µM
  relative viability: 0.858
NCI-H661; first compound 0.6325 µM
  relative viability: 0.733
NCI-H661; first compound 2 µM
  relative viability: 0.89
NCI-H661; first compound 6.325 µM
  relative viability: 0.883
NCI-H661; first compound 20 µM
  relative viability: 0.796
BEN; first compound 0.2 µM
  relative viability: 0.306
BEN; first compound 0.6325 µM
  relative viability: 0.279
BEN; first compound 6.325 µM
  relative viability: 0.271
BEN; first compound 20 µM
  relative viability: 0.339
NCI-H460; first compound 0.2 µM
  relative viability: 0.495
NCI-H460; first compound 0.6325 µM
  relative viability: 0.321
NCI-H460; first compound 2 µM
  relative viability: 0.511
NCI-H460; first compound 6.325 µM
  relative viability: 0.518
NCI-H460; first compound 20 µM
  relative viability: 0.196
NCI-H2228; first compound 0.2 µM
  relative viability: 0.638
NCI-H2228; first compound 0.6325 µM
  relative viability: 0.399
NCI-H2228; first compound 2 µM
  relative viability: 0.541
NCI-H2228; first compound 6.325 µM
  relative viability: 0.392
NCI-H2228; first compound 20 µM
  relative viability: 0.0268
NCI-H1651; first compound 0.2 µM
  relative viability: 0.455
NCI-H1651; first compound 0.6325 µM
  relative viability: 0.468
NCI-H1651; first compound 2 µM
  relative viability: 0.423
NCI-H1651; first compound 6.325 µM
  relative viability: 0.415
NCI-H1651; first compound 20 µM
  relative viability: 0.432
COR-L23; first compound 0.2 µM
  relative viability: 0.508
COR-L23; first compound 0.6325 µM
  relative viability: 0.478
COR-L23; first compound 2 µM
  relative viability: 0.595
COR-L23; first compound 6.325 µM
  relative viability: 0.432
COR-L23; first compound 20 µM
  relative viability: 0.0161
EPLC-272H; first compound 2 µM
  relative viability: 0.349
EPLC-272H; first compound 6.325 µM
  relative viability: 0.347
EPLC-272H; first compound 20 µM
  relative viability: 0.0979
NCI-H520; first compound 0.2 µM
  relative viability: 0.203
NCI-H520; first compound 0.6325 µM
  relative viability: 0.204
NCI-H520; first compound 2 µM
  relative viability: 0.258
NCI-H520; first compound 6.325 µM
  relative viability: 0.176
NCI-H520; first compound 20 µM
  relative viability: 0.13
NCI-H2347; first compound 0.2 µM
  relative viability: 0.766
NCI-H2347; first compound 0.6325 µM
  relative viability: 0.257
NCI-H2347; first compound 2 µM
  relative viability: 0.291
NCI-H2347; first compound 6.325 µM
  relative viability: 0.3
NCI-H2347; first compound 20 µM
  relative viability: 0.37
NCI-H358; first compound 0.2 µM
  relative viability: 0.186
NCI-H358; first compound 2 µM
  relative viability: 0.174
NCI-H358; first compound 6.325 µM
  relative viability: 0.178
NCI-H358; first compound 20 µM
  relative viability: 0.0822
A-427; first compound 0.2 µM
  relative viability: 0.547
A-427; first compound 0.6325 µM
  relative viability: 0.577
A-427; first compound 2 µM
  relative viability: 0.721
A-427; first compound 6.325 µM
  relative viability: 0.602
A-427; first compound 20 µM
  relative viability: 0.15
SW 900; first compound 0.2 µM
  relative viability: 0.632
SW 900; first compound 0.6325 µM
  relative viability: 0.642
SW 900; first compound 2 µM
  relative viability: 0.386
SW 900; first compound 6.325 µM
  relative viability: 0.0491
SW 900; first compound 20 µM
  relative viability: 0.0965
EMC-BAC-2; first compound 0.2 µM
  relative viability: 0.394
EMC-BAC-2; first compound 0.6325 µM
  relative viability: 0.298
EMC-BAC-2; first compound 6.325 µM
  relative viability: 0.378
EMC-BAC-2; first compound 20 µM
  relative viability: 0.247
NCI-H1793; first compound 0.2 µM
  relative viability: 0.431
NCI-H1793; first compound 0.6325 µM
  relative viability: 0.365
NCI-H1793; first compound 6.325 µM
  relative viability: 0.404
NCI-H1793; first compound 20 µM
  relative viability: 0.35
LK-2; first compound 0.2 µM
  relative viability: 0.275
LK-2; first compound 0.6325 µM
  relative viability: 0.223
LK-2; first compound 2 µM
  relative viability: 0.329
LK-2; first compound 6.325 µM
  relative viability: 0.164
LK-2; first compound 20 µM
  relative viability: 0.116
NCI-H2087; first compound 0.2 µM
  relative viability: 0.471
NCI-H2087; first compound 0.6325 µM
  relative viability: 0.727
NCI-H2087; first compound 2 µM
  relative viability: 0.626
NCI-H2087; first compound 6.325 µM
  relative viability: 0.876
NCI-H2087; first compound 20 µM
  relative viability: 0.289
